Here are results for 7 compounds from patent US20250353891A1 (MEDIMMUNE LIMITED, priority 2022, published 2025).

Assay [1] concerns the target human GLP-1 receptor (hGLP-1R) (Homo sapiens, UniProt P43220). The experiment in a line: cAMP production (HTRF) in CHO cells expressing hGLP-1R. Type of assay: cell-based. Also on record: expressed in transfected cells. As to conditions: for EC50: Table 7, peptides modified at position 20, cAMP in CHO hGLP-1R cells, geometric mean, read-out: hGLP-1R EC50; for % Relative Potency Ratio: Table 7, % GLP-1R activity relative to GLP-1 / % GlucR activity relative to glucagon. An outline of the steps:
(§1)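 Read-out: HTRF cAMP (anti-cAMP cryptate donor, cAMP-d2 acceptor in conjugate/lysis buffer), converted to % Delta F and fitted by 4-parameter logistic for EC50. Cell densities were 1×10^5 cells/mL (hGLP-1R) or 2×10^5 cells/mL (hGCGR). Stimulation lasted 30 min at room temperature.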
Background: Changes in cAMP serve as a functional read-out for many G protein-coupled receptors.

The target in assay [2] is human glucagon receptor (hGCGR) (Homo sapiens, UniProt P47871). The assay is described as follows: cAMP production (HTRF) in CHO cells expressing hGCGR. It is filed as cell-based. Also on record: expressed in transfected cells. As to conditions: Table 7, peptides modified at position 20; cAMP in CHO hGCGR cells; geometric mean; read-out: hGluc-R EC50. Summed up:
as §1

Starred links: 1 amine or outer side, 2 acyl side, 3 side chain; linkers in the order of their positions; H or OH if unused. Non-standard residues stand in square brackets, D forms with d. Residues, ends and D or L forms follow the SMILES beside them. Groups on a side chain read outwards from the residue. *: point of attachment. C20 diacid = O=C(O)CCCCCCCCCCCCCCCCCCC(=O)*; C18 diacid = O=C(O)CCCCCCCCCCCCCCCCC(=O)*; γGlu = O=C(O)[C@H](CCC(=O)[*:2])N[*:1]; αMeF = C[C@](N)(Cc1ccccc1)C(=O)O; PEG4 = NCCOCCOCCOCCOCCC(=O)O; PEG2 = NCCOCCOCCC(=O)O; AEEA = NCCOCCOCC(=O)O; Aib = CC(C)(N)C(=O)O

human GLP-1 receptor (hGLP-1R), sequence (P43220 24-463): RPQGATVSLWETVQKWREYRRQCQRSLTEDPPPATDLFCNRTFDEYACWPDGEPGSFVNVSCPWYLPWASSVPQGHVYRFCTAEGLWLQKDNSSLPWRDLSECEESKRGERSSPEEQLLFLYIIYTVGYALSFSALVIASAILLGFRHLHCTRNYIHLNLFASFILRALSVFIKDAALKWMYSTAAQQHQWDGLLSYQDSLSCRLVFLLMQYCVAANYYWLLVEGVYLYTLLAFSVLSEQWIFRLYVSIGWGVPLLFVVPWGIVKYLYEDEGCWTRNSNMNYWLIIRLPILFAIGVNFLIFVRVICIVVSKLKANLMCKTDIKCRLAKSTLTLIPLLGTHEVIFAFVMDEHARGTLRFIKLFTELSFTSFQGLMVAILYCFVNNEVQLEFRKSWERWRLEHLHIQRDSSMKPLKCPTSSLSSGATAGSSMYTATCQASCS
human glucagon receptor (hGCGR), sequence (P47871 26-477): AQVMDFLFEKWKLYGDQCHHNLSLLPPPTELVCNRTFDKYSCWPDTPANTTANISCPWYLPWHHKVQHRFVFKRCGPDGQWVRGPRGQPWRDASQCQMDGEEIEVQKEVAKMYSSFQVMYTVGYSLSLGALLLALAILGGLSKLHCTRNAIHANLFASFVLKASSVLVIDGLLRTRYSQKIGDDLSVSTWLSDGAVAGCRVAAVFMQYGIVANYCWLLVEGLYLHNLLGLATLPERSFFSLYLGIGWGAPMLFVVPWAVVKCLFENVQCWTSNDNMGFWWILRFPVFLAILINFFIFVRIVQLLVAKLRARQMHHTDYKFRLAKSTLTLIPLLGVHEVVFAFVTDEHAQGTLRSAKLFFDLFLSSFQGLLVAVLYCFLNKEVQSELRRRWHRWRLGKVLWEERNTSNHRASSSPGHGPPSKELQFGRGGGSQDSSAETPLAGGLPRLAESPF

With `CC[C@H](C)[C@H](NC(=O)[C@H](CO)NC(=O)[C@H](CCC(=O)O)NC(=O)[C@@H](NC(=O)[C@H](Cc1ccccc1)NC(=O)[C@H](CC(=O)O)NC(=O)[C@H](CCCCNC(=O)CC[C@H](NC(=O)CCCCCCCCCCCCCCCCC(=O)O)C(=O)O)NC(=O)[C@H](C)NC(=O)C(C)(C)NC(=O)[C@H](CCCNC(=N)N)NC(=O)[C@H](CO)NC(=O)[C@H](CC(=O)O)NC(=O)[C@H](CC(C)C)NC(=O)[C@](C)(Cc1ccccc1)NC(=O)[C@H](CCCCN)NC(=O)[C@H](CO)NC(=O)[C@@H](NC(=O)[C@H](CC(=O)O)NC(=O)[C@H](CO)NC(=O)[C@@H](NC(=O)[C@](C)(Cc1ccccc1)NC(=O)[C@H](CO)NC(=O)CNC(=O)[C@H](Cc1c[nH]cn1)NC(=O)C(C)(C)NC(=O)[C@@H](N)Cc1c[nH]cn1)[C@@H](C)O)C(C)C)C(C)C)C(=O)N[C@@H](C)C(=O)N[C@@H](CC(N)=O)C(=O)N[C@H](C(N)=O)[C@@H](C)O` [Peptide 254] (H-H[Aib]HGS[αMeF]TSDVSK[αMeF]LDSR[Aib]AK([γGlu-C18 diacid])DFVESIANT-NH2), the EC50 (in general, the concentration giving half of the maximal effect) was determined as 0.102 nM in assay [1] and 0.125 nM in assay [2]. In addition, in assay [1], the “% Relative Potency Ratio” value amounted to 2.4.
Regarding `CC[C@H](C)[C@H](NC(=O)C(C)(C)NC(=O)[C@H](CCC(N)=O)NC(=O)[C@@H](NC(=O)[C@](C)(Cc1ccccc1)NC(=O)[C@H](CC(=O)O)NC(=O)[C@H](CCCCNC(=O)COCCOCCNC(=O)COCCOCCNC(=O)CC[C@H](NC(=O)CCCCCCCCCCCCCCCCC(=O)O)C(=O)O)NC(=O)[C@H](C)NC(=O)[C@H](C)NC(=O)[C@H](CCC(N)=O)NC(=O)[C@H](CO)NC(=O)[C@H](CC(=O)O)NC(=O)[C@H](CC(C)C)NC(=O)[C@](C)(Cc1ccccc1)NC(=O)[C@H](CCCCN)NC(=O)[C@H](CO)NC(=O)[C@@H](NC(=O)[C@H](CC(=O)O)NC(=O)[C@H](CO)NC(=O)[C@@H](NC(=O)[C@](C)(Cc1ccccc1)NC(=O)[C@H](CO)NC(=O)CNC(=O)[C@H](Cc1c[nH]cn1)NC(=O)C(C)(C)NC(=O)[C@@H](N)Cc1c[nH]cn1)[C@@H](C)O)C(C)C)C(C)C)C(=O)N[C@@H](C)C(=O)N[C@@H](CC(N)=O)C(=O)N[C@H](C(N)=O)[C@@H](C)O` [Peptide 255] (H-H[Aib]HGS[αMeF]TSDVSK[αMeF]LDSQAAK([AEEA-AEEA-γGlu-C18 diacid])D[αMeF]VQ[Aib]IANT-NH2; N-terminus assumed), in assay [1], the EC50 is 0.148 nM and the “% Relative Potency Ratio” value amounted to 2.0. The EC50 in assay [2] is 0.146 nM.
The matching figures for `CC[C@H](C)[C@H](NC(=O)C(C)(C)NC(=O)[C@H](CCC(N)=O)NC(=O)[C@@H](NC(=O)[C@](C)(Cc1ccccc1)NC(=O)[C@H](CC(=O)O)NC(=O)[C@H](CCCCNC(=O)COCCOCCNC(=O)COCCOCCNC(=O)CC[C@H](NC(=O)CC[C@H](NC(=O)CCCCCCCCCCCCCCCCCCC(=O)O)C(=O)O)C(=O)O)NC(=O)[C@H](C)NC(=O)[C@H](C)NC(=O)[C@H](CCC(N)=O)NC(=O)[C@H](CO)NC(=O)[C@H](CC(=O)O)NC(=O)[C@H](CC(C)C)NC(=O)[C@](C)(Cc1ccccc1)NC(=O)[C@H](CCCCN)NC(=O)[C@H](CO)NC(=O)[C@@H](NC(=O)[C@H](CC(=O)O)NC(=O)[C@H](CO)NC(=O)[C@@H](NC(=O)[C@](C)(Cc1ccccc1)NC(=O)[C@H](CO)NC(=O)CNC(=O)[C@H](Cc1c[nH]cn1)NC(=O)C(C)(C)NC(=O)[C@@H](N)Cc1c[nH]cn1)[C@@H](C)O)C(C)C)C(C)C)C(=O)N[C@@H](C)C(=O)N[C@@H](CC(N)=O)C(=O)N[C@H](C(N)=O)[C@@H](C)O` [Peptide 256] (H-H[Aib]HGS[αMeF]TSDVSK[αMeF]LDSQAAK([AEEA-AEEA-γGlu-γGlu-C20 diacid])D[αMeF]VQ[Aib]IANT-NH2): 0.346 nM, 7.5 and 1.31 nM.
In the case of `CC[C@H](C)[C@H](NC(=O)C(C)(C)NC(=O)[C@H](CCC(N)=O)NC(=O)[C@@H](NC(=O)[C@](C)(Cc1ccccc1)NC(=O)[C@H](CC(=O)O)NC(=O)[C@H](CCCCNC(=O)CCOCCOCCNC(=O)CCOCCOCCNC(=O)CC[C@H](NC(=O)CC[C@H](NC(=O)CCCCCCCCCCCCCCCCC(=O)O)C(=O)O)C(=O)O)NC(=O)[C@H](C)NC(=O)[C@H](C)NC(=O)[C@H](CCCNC(=N)N)NC(=O)[C@H](CO)NC(=O)[C@H](CC(=O)O)NC(=O)[C@H](CC(C)C)NC(=O)[C@](C)(Cc1ccccc1)NC(=O)[C@H](CCCCN)NC(=O)[C@H](CO)NC(=O)[C@@H](NC(=O)[C@H](CC(=O)O)NC(=O)[C@H](CO)NC(=O)[C@@H](NC(=O)[C@](C)(Cc1ccccc1)NC(=O)[C@H](CO)NC(=O)CNC(=O)[C@H](Cc1c[nH]cn1)NC(=O)C(C)(C)NC(=O)[C@@H](N)Cc1c[nH]cn1)[C@@H](C)O)C(C)C)C(C)C)C(=O)N[C@@H](C)C(=O)N[C@@H](CC(N)=O)C(=O)N[C@H](C(N)=O)[C@@H](C)O` [Peptide 258] (H-H[Aib]HGS[αMeF]TSDVSK[αMeF]LDSRAAK([PEG2-PEG2-γGlu-γGlu-C18 diacid])D[αMeF]VQ[Aib]IANT-NH2; N-terminus assumed), in assay [1], the EC50 was determined as 0.034 nM and the “% Relative Potency Ratio” value amounted to 5.4. Also, in assay [2], the EC50 worked out at 0.0931 nM.
`CC[C@H](C)[C@H](NC(=O)C(C)(C)NC(=O)[C@H](CCC(N)=O)NC(=O)[C@@H](NC(=O)[C@](C)(Cc1ccccc1)NC(=O)[C@H](CC(=O)O)NC(=O)[C@H](CCCCNC(=O)COCCOCCNC(=O)CC[C@H](NC(=O)COCCOCCNC(=O)CCCCCCCCCCCCCCCCC(=O)O)C(=O)O)NC(=O)[C@H](C)NC(=O)[C@H](C)NC(=O)[C@H](CCCNC(=N)N)NC(=O)[C@H](CO)NC(=O)[C@H](CC(=O)O)NC(=O)[C@H](CC(C)C)NC(=O)[C@](C)(Cc1ccccc1)NC(=O)[C@H](CCCCN)NC(=O)[C@H](CO)NC(=O)[C@@H](NC(=O)[C@H](CC(=O)O)NC(=O)[C@H](CO)NC(=O)[C@@H](NC(=O)[C@](C)(Cc1ccccc1)NC(=O)[C@H](CO)NC(=O)CNC(=O)[C@H](Cc1c[nH]cn1)NC(=O)C(C)(C)NC(=O)[C@@H](N)Cc1c[nH]cn1)[C@@H](C)O)C(C)C)C(C)C)C(=O)N[C@@H](C)C(=O)N[C@@H](CC(N)=O)C(=O)N[C@H](C(N)=O)[C@@H](C)O` [Peptide 259] (H-H[Aib]HGS[αMeF]TSDVSK[αMeF]LDSRAAK([AEEA-γGlu-AEEA-C18 diacid])D[αMeF]VQ[Aib]IANT-NH2): in assay [1], the EC50 was 0.0191 nM and the “% Relative Potency Ratio” value is listed as 3.6. Further, the EC50 in assay [2] worked out at 0.0348 nM.
Regarding `CC[C@H](C)[C@H](NC(=O)C(C)(C)NC(=O)[C@H](CCC(N)=O)NC(=O)[C@@H](NC(=O)[C@](C)(Cc1ccccc1)NC(=O)[C@H](CC(=O)O)NC(=O)[C@H](CCCCNC(=O)COCCOCCNC(=O)CC[C@H](NC(=O)COCCOCCNC(=O)CC[C@H](NC(=O)CCCCCCCCCCCCCCCCC(=O)O)C(=O)O)C(=O)O)NC(=O)[C@H](C)NC(=O)[C@H](C)NC(=O)[C@H](CCCNC(=N)N)NC(=O)[C@H](CO)NC(=O)[C@H](CC(=O)O)NC(=O)[C@H](CC(C)C)NC(=O)[C@](C)(Cc1ccccc1)NC(=O)[C@H](CCCCN)NC(=O)[C@H](CO)NC(=O)[C@@H](NC(=O)[C@H](CC(=O)O)NC(=O)[C@H](CO)NC(=O)[C@@H](NC(=O)[C@](C)(Cc1ccccc1)NC(=O)[C@H](CO)NC(=O)CNC(=O)[C@H](Cc1c[nH]cn1)NC(=O)C(C)(C)NC(=O)[C@@H](N)Cc1c[nH]cn1)[C@@H](C)O)C(C)C)C(C)C)C(=O)N[C@@H](C)C(=O)N[C@@H](CC(N)=O)C(=O)N[C@H](C(N)=O)[C@@H](C)O` [Peptide 260] (H-H[Aib]HGS[αMeF]TSDVSK[αMeF]LDSRAAK([AEEA-γGlu-AEEA-γGlu-C18 diacid])D[αMeF]VQ[Aib]IANT-NH2), in assay [1], the EC50 stood at 0.0331 nM and the “% Relative Potency Ratio” value is listed as 4.6. In addition, the EC50 in assay [2] was found to be 0.0769 nM.
`CC[C@H](C)[C@H](NC(=O)C(C)(C)NC(=O)[C@H](CCC(N)=O)NC(=O)[C@@H](NC(=O)[C@](C)(Cc1ccccc1)NC(=O)[C@H](CC(=O)O)NC(=O)[C@H](CCCCNC(=O)CCOCCOCCOCCOCCNC(=O)CC[C@H](NC(=O)CCCCCCCCCCCCCCCCC(=O)O)C(=O)O)NC(=O)[C@H](C)NC(=O)[C@H](C)NC(=O)[C@H](CCCNC(=N)N)NC(=O)[C@H](CO)NC(=O)[C@H](CC(=O)O)NC(=O)[C@H](CC(C)C)NC(=O)[C@](C)(Cc1ccccc1)NC(=O)[C@H](CCCCN)NC(=O)[C@H](CO)NC(=O)[C@@H](NC(=O)[C@H](CC(=O)O)NC(=O)[C@H](CO)NC(=O)[C@@H](NC(=O)[C@](C)(Cc1ccccc1)NC(=O)[C@H](CO)NC(=O)CNC(=O)[C@H](Cc1c[nH]cn1)NC(=O)C(C)(C)NC(=O)[C@@H](N)Cc1c[nH]cn1)[C@@H](C)O)C(C)C)C(C)C)C(=O)N[C@@H](C)C(=O)N[C@@H](CC(N)=O)C(=O)N[C@H](C(N)=O)[C@@H](C)O` [Peptide 261] (H-H[Aib]HGS[αMeF]TSDVSK[αMeF]LDSRAAK([PEG4-γGlu-C18 diacid])D[αMeF]VQ[Aib]IANT-NH2; N-terminus assumed): the EC50 stood at 0.0162 nM in assay [1] and 0.0294 nM in assay [2]. In addition, the “% Relative Potency Ratio” value in assay [1] is given as 3.6.
